Measurements: patent publication US20060099568A1, “Signals and molecular species involved in senescence” (priority 2002, published 2006)

What was measured:
[1] = tested on: phosphodiesterases (PDEs); assay: measurement of phosphodiesterase activity in LPA-treated cells; type: cell-based, human; settings: 30 μg/ml LPA
Method: (§1) Subconfluent presenescent (passage 8, Pa 8) and near-senescent (passage 24, Pa 24) fibroblasts were serum-starved for 2 days and treated with 30 μg/ml LPA for the indicated times. The activities of adenylyl cyclase (A) and phosphodiesterase (B) were determined in the fresh membranes and total cell lysates as described in Materials and Methods. The enzyme activities were calculated as pmol/μg/min. The data represents an average of triplicate experiments.
Phosphodiesterase (PDE) assays were performed as described previously (Jang and Juhnn, 2001). 15 μg of cytosolic proteins were incubated in 200 μl of reaction mixture containing 50 mM Tris-HCl, pH 7.4, 3 mM MgCl2, 60 pmol cAMP, 1 mM 5′-AMP for 15 min at 37° C. After the reaction was stopped by adding 2.0 M perchloric acid, the amount of remaining cAMP was determined by cAMP binding assay.

CREB = CREB phosphorylation, Western blot with anti-phospho-CREB antibody; type: cell-based, human; settings: near-senescent fibroblasts; 30 μg/ml LPA
Method: FIG. 10 represents LPA-dependent PKA activity and CREB phosphorylation in presenescent and near-senescent fibroblasts. Subconfluent presenescent (passage 8, Pa 8) and near-senescent (passage 24, Pa 24) fibroblasts were serum-starved for 2 days and treated with 30 μg/ml LPA for the indicated times. The PKA activity (A) was determined in cell homogenates with kemptide and [γ^32P]ATP as substrates. The radioactivity incorporated into kemptide was measured by a beta-counter and the enzyme activity was calculated as pmol/min/mg protein. The data represents an average of triplicate experiments. The level of phospho-CREB (B) was measured by Western blot analysis using an anti-phospho-CREB antibody.
The expression levels of signaling proteins were examined by Western blot analysis, as described previously (Yeo et al., 2000a). […] The protein concentrations of the lysates were determined using a BCA protein assay kit, as described by the protocol supplied by the manufacturer. […] To examine the level of phospholipase D 1/2, the immunoprecipitated protein obtained using 10 μl of anti-phospholipase D 1 anti-sera (Box45, ESTP4) was analyzed by Western blot against polyclonal anti-phospholipase D 1 antibodies (1:20 dilution of NC STP4 anti-serum).

adenylyl cyclases (ACs) = assay: measurement of adenylyl cyclase activity in membranes of LPA-treated cells; type: cell-based, human; settings: 30 μg/ml LPA
Method: as §1
Cells seeded in a 10-cm culture plate were serum-starved and treated with LPA as described in the figure legends. Cells were harvested and homogenized in ice-cold homogenization buffer containing 0.25 M sucrose, 10 mM Tris-HCl, pH 7.5, 10 mM MgCl2, 2 mM EGTA, and protease inhibitors. Homogenates were centrifuged at 20,000×g at 4° C. for 20 min. Pellets were washed twice with the above buffer, resuspended in 10 mM Tris-HCl, pH 7.4, and 10 MM MgCl2, and the adenylyl cyclase assays were performed as described previously (Jang et al. 2001). The membrane proteins (15 μg/ml) were incubated for 10 min at 30° C. in a reaction mixture (100 μl) containing 40 mM Tris, pH 7.4, 0.2 mM EGTA, 100 mM NaCl, 10 mM MgCl2, 0.5 mM ATP, 5 μg/ml phosphocreatine, 5 IU/ml creatine phosphokinase, 10 μM GTP, and 0.5 mM IBMX. The reaction was stopped by adding 2.5 M perchloric acid. The amount of cAMP generated was determined by cAMP binding assay.

[2] = tested on: human diploid fibroblasts; assay: growth factor-stimulated signaling events in human diploid fibroblasts; type: cell-based
Method: Foreskin fibroblasts were isolated as described by Boyce and Ham (1983). Cells were cultured in Dulbecco's modified Eagle's medium containing 10% fetal bovine serum and antibiotics. The primary culture contained smaller and more closely packed cells during the early stage of the culture. Cells with less than 10 passage were often considered as presenescent cells. As the cells were passaged, they became larger and they have a slower growth rate at passage 10-20. Cells from over 27 passages were completely growth-arrested and developed characteristic appearance designated previously as replicative senescence (Yeo et al., 2000a and b). In order to confirm that cells were senescent, we either examined the activity of beta-galactosidase or stained with X-gal, a membrane permeable substrate of the enzyme, which produces a blue insoluble product inside of the cells. The number of cells stained with X-gal increased with age and most of cells from passage 27-28 were stained. Cultures of over 23-28 passages have also shown the cessation of cell growth and senescence-like morphological changes, but only 70-80% of cells were stained with X-gal. These were termed “near-senescent”. Although the near-senescent cultures were not completely homogeneous, we compared the changes in these cultures to those in presenescent cultures of passage 6-10. In order to determine the growth factor-stimulated signaling events, cells were grown for 1-2 days to 60-70% sub-confluency in the culture medium, and then serum-starved to become quiescent by incubating with serum free medium (SFM) for 2 days. The quiescent cells were treated with various agonists, as described in the figure legends. To label cells, radioactive chemicals were added during the incubation with SFM.
Primary human diploid fibroblasts, isolated from newborn foreskins, were used to study the mechanism of reduced response to growth factor stimulation with aging. These cells were maintained and passaged as described previously (Yeo et al., 2000a). […] Compared to their presenescent counterparts, the senescent and near-senescent cells were larger and grew to lower density, as has been observed in other cell systems. Here the present inventors report upon the differential changes in the signaling events evoked by platelet-derived growth factor (PDGF) and lysophosphatidic acid (LPA). PDGF elicits signaling events over a concentration range of 10-100 ng/ml, whereas LPA stimulates the hydrolysis of phospholipids, Ca^2+ mobilization, and actin polymerization over a concentration range of 0.1-10 μg/ml in human diploid fibroblasts. In order to compare their cellular responses, we treated presenescent and senescent (or near-senescent) cells with PDGF and LPA at a maximally responsive dose of 50 ng/ml and 1 μg/ml, respectively.

Substance: lysophosphatidic acid [LPA]
- PDE activity ([1]; near-senescent cells): reduced
- PDE activity ([1]; presenescent cells): increased
- CREB phosphorylation (CREB): correlated well with cAMP accumulation
- total AC activity (adenylyl cyclases (ACs); near-senescent cells): increased
- total AC activity (adenylyl cyclases (ACs); presenescent cells): reduced time-dependently
- concentration range stimulating hydrolysis of phospholipids, Ca2+ mobilization and actin polymerization ([2]; human diploid fibroblasts): 0.1 to 10 µg/mL
- maximally responsive dose ([2]; presenescent and senescent (or near-senescent) cells): 1 µg/mL
